Experimental data as given in patent US4025630A, “Anesthesia methods using benzopyrans and esters thereof as pre-anesthesia medication” (Abbott Laboratories, priority 1974, dated 1977).
Structures can show the parent of a compound that is named as a salt.

Key:
[1] = tested on: mice; test: Interaction of Benzopyranopyridines with Penthrane (modified Carson and Domino method); type: in vivo, female Swiss-Webster mice; conditions: 1 to 5 mg./kg. 15 minutes prior to Penthrane vapors
Description: (§1) A modification of the method of Carson and Domino (Anesthesiology, 23:187-192, 1962) was used.
(§2) Groups of 10 female Swiss-Webster (A. R. Schmidt, Madison, Wisconsin) mice weighing between 16-24 grams were pre-treated with various doses or at various times with drug either oral or by intravenous injection of the tail veins. The mice were placed into 2 liter beakers (5 animals per beaker). The tops of the beakers were covered with Parafilm to which a gauze sponge had been attached. 0.1 cc of Penthrane or halothrane was injected through the Parafilm into the sponge at 5 minute intervals. […] These parameters were measured by the use of a stop watch. Statistical analysis (one-way analysis of variance) was done on the computer.

[2] = tested on: mice; test: Interaction of Benzopyranopyridines with Pentothal (loss of righting reflex, sleep); type: in vivo, female Swiss-Webster mice
Experimental: (§3) Groups of 10 female Swiss-Webster (A. R. Schmidt, Madison, Wisconsin) mice weighing between 16-25 grams were used for all studies. Intravenous injections were made into the tail veins. The drugs were prepared daily in Sterile Water (Abbott List No. 1590). […] LD50 's ED50 's, and their associated conficence limits were calculated by the method of Litchfield and Wilcoxon (1949).
Interaction of Benzopyranopyridines with Pentothal
1. Animals pretreated with SP-106, 1 mg./kg. intravenously 0-30 minutes prior to Pentothal, 10 mg./kg. […] Longer pretreatment times (60 to 120 minutes) had no effect.

[3] = tested on: mice; test: Interaction of Benzopyranopyridines with Fluothane (halothane) (modified Carson and Domino method); type: in vivo, female Swiss-Webster mice; conditions: 1 to 5 mg./kg. 15 minutes prior to halothane vapors
Description: as §1, §2

[4] = tested on: mice; test: Activity of benzopyrans as adjuvants to halothane anesthesia (Carson-Domino method); type: in vivo; design: key: +: statistically significant increase; -: statistically significant decrease; NE: no effect; (): large but non-statistically significant change
Description: as §1, §2
A number of benzopyran derivatives were screened in mice as adjuvants to the anesthetic actions of halothane. The Carson-Domino method (Anesthesiology 23:187, 1962) was used to measure anesthetic induction times and duration of anesthesia as evidenced by loss of righting reflex, as well as changes in the lethality of halothane.
Screening doses of 5 mg./kg. intravenously or 20 mg./kg. orally were used.

[5] = Determination of the Anesthetic ED50 and the LD50 of Pentothal; type: in vivo, female Swiss-Webster mice; conditions: mouse, in vivo; intravenous, mice, observed one week; read-out: LD50 (95% C.L.)
Experimental: (§4) An intravenous potency/lethality ratio for Pentothal was established in mice as follows
(§5) Determination of the Anesthetic ED50 and the LD50 of Pentothal
as §3

[6] = tested on: mice; test: as above; type: in vivo, female Swiss-Webster mice
Experimental: as §4, §5, §3

[7] = Solubility in water of the product; conditions: powder
[8] = 5 mg/kg i.v., pretreatment time 15 minutes
[9] = 20 mg/kg p.o., pretreatment time 1 hr
[10] = 20 mg/kg p.o., pretreatment time 2 hr
[11] = 20 mg/kg p.o., pretreatment time 3 hr
[12] = 20 mg/kg p.o., pretreatment time 4 hr

Compound: C#CCN1CCC2=C(C1)c1c(OC(=O)CCCN3CCCCC3)cc(C(C)C(C)CCCCC)cc1OC2(C)C.Cl (centres unmarked) [SP-106, 5,5-Dimethyl-8-(3-methyl-2-octyl)-10-[4-(piperidino)butyryloxy]-2-(2-propynyl)-1,2,3,4-tetrahydro-5H-[1]benzopyrano[3,4-d]pyridine hydrochloride]
- duration of anesthesia [1]: significantly lengthened the duration of anesthesia
- onset to sleep [1]: signficantly shortened onset to sleep
- time to death [1]: had no effect or lengthened time to death
- peak effect ([2]; 1 mg./kg. intravenously 0-30 minutes prior to Pentothal 10 mg./kg.): 5 min
- anesthesia (loss of righting reflex) ([2]; 1 mg./kg. intravenously 0-30 minutes prior to Pentothal 10 mg./kg. (non-anesthetic dose)): produced anesthesia
- sleep duration ([2]; 1 and 5 mg./kg. intravenously 15 minutes prior to anesthetic dose (30 mg./kg.) of Pentothal): significantly lengthened the sleep
- effect at longer pretreatment times ([2]; 60 to 120 minutes pretreatment, 1 mg./kg. intravenously, Pentothal 10 mg./kg.): had no effect
- Onset [3]: reduction of onset
- duration of anesthesia [3]: increased the duration of anesthesia
- time to death [3]: increased
- Duration [4, 8]: +
- Lethality [4, 8]: -
- Onset [4, 8]: -

Compound: C#CCN1CCC2=C(C1)c1c(OC(=O)CCCN3CCCCC3C)cc(C(C)C(C)CCCCC)cc1OC2(C)C (centres unmarked) [SP-159, 5,5-Dimethyl-10-[4-(2-methylpiperidino)butyryloxy]-8-(3-methyl-2-octyl)-2-(2-propynyl)-1,2,3,4-tetrahydro-5H-[1]benzopyrano [3,4-d] pyridine hydrochloride]
- Duration [4, 8]: +
- Lethality [4, 8]: NE
- Onset [4, 8]: -

Compound: C#CCN1CCC2=C(C1)c1c(O)cc(C(C)C(C)CCCCC)cc1OC2(C)C (centres unmarked) [SP-1]
- Duration [4, 9]: +
- Lethality [4, 9]: -
- Onset [4, 9]: +
- Duration [4, 10]: +
- Lethality [4, 10]: NE
- Onset [4, 10]: -
- Duration [4, 11]: +
- Lethality [4, 11]: NE
- Onset [4, 11]: -
- Duration [4, 12]: +
- Lethality [4, 12]: NE
- Onset [4, 12]: -

Compound: CCCCCc1cc(OC(=O)CCCN2CCOCC2)c2c(c1)OC(C)(C)C1CCC(C)=CC21 (centres unmarked) [SP-111]
- Duration [4, 8]: +
- Lethality [4, 8]: NE
- Onset [4, 8]: -

Compound: C#CCN1CCC2=C(C1)c1c(OC(=O)CCCN3CCOCC3)cc(C(C)C(C)CCCCC)cc1OC2(C)C.Cl (centres unmarked) [SP-112, 5,5-Dimethyl-10-[4-(morpholino)butyryloxy]-8-(3-methyl-2-octyl)-2-(2-propynyl)-1,2,3,4-tetrahydro-5H-[1]-benzopyrano [3,4-d] pyridine hydrochloride]
- Duration [4, 8]: +
- Lethality [4, 8]: NE
- Onset [4, 8]: -

Compound: C#CCN1CCC2=C(C1)c1c(OC(=O)CCCN3CCCCC3)cc(C(C)CCCc3ccc(F)cc3)cc1OC2(C)C (centres unmarked) [SPA-109]
- Duration [4, 8]: +
- Lethality [4, 8]: NE
- Onset [4, 8]: -

Compound: CCCCCC(C)C(C)c1cc(OC(=O)CCCN2CCCCC2)c2c(c1)OC(C)(C)C1=C2CCCS1 (centres unmarked) [SP-117]
- Lethality [4, 8]: NE
- Onset [4, 8]: +

Compound: C#CCN1CCC2=C(C1)c1c(OC(=O)C(C)CCN3CCCCC3C)cc(C(C)C(C)CCCCC)cc1OC2(C)C (centres unmarked) [SP-204]
- Duration [4, 8]: +
- Lethality [4, 8]: -
- Onset [4, 8]: -

Compound: CCCCCC(C)C(C)c1cc(OC(=O)CCCN2CCCCC2)c2c(c1)OC(C)(C)C1=C2CCC1 (centres unmarked) [SP-102]
- Duration [4, 8]: +
- Lethality [4, 8]: NE
- Onset [4, 8]: +

Compound: CCCC(C)C1(CC)C(=O)NC(=S)NC1=O (centres unmarked) [Pentothal, sodium thiopental]
- LD50 at 168 h [5]: 76 mg/kg
- ED50 ([6]; Mus musculus, intravenous, mice, loss of righting reflex, read-out: Anesthetic ED50 (95% C.L.)): 20 mg/kg
- pH ([6]; Remarks: irritating (pH 11)): 11
- Remarks: duration ([6]; intravenous, mice): short duration
- Remarks: irritation ([6]; intravenous, mice): irritating
- Remarks: onset ([6]; intravenous, mice): Immediate onset
- Therapeutic Index ([6]; intravenous, mice): ~ 4

Compound: CC1CCC2=C(C1)c1c(OC(=O)CCCN3CCCCC3)cc(C(C)CCCc3ccc(F)cc3)cc1OC2(C)C (centres unmarked) [Example 71]
- solubility in water [7]: soluble in water

Compound: C#CCN1CCC2=C(C1)c1c(OC(=O)C(C)CCN3CCCCC3)cc(C(C)C(C)CCCCC)cc1OC2(C)C (centres unmarked) [SP-178, 5,5-Dimethyl-10-[2-methyl-4-(piperidino)butyryloxy]-8-(3-methyl-2-octyl)-2-(2-propynyl)-1,2,3,4-tetrahydro-5H-[1]benzopyrano[3,4-d] pyridine dihydrochloride]
- Duration [4, 8]: +
- Lethality [4, 8]: NE
- Onset [4, 8]: -
